Assay results published in US20260297038A1, “ORTHO-PHTHALALDEHYDE-FUNCTIONALIZED ULTRAVIOLETABSORBERS AND VISIBLE CHROMOPHORES FOR SEMI-PERMANENT TOPICAL APPLICATIONS” (The Regents of the University of Colorado, a body corporate, priority 2023, published 2026).

Tests used:
[1] = system: stratum corneum of excised porcine skin; test: Semi-permanent retention of topical mark on excised porcine skin after repeated washing, and localization after bisection (FIG. 7); conditions: for retention of the mark on skin after washing: gel dried 10 minutes, washed after 3 hours, washing procedure repeated five times
Excerpt: FIG. 7 is a set of annotated visible and ultraviolet photographs of excised porcine skin areas exposed to the composition described in Example 8 according to the method of Example 10, labeled o-phthalaldehyde, accompanied by a positive control based on genipin and three negative controls based on a commercially available organic and mineral SPF-30 sunscreens and permanent black marker, taken before the skin was washed, then after one wash, after five washes, and after five washes and bisection.
20 mg of 3,6-dihydroxy-4,5-dimethyl-1,2-benzenedicarboxaldehyde was mixed directly into 230 mg of a gel comprising 79.715% v/v water, 20% v/v ethanol, and 0.285% v/v carbomer 940 and stirred mechanically until a homogenous gel was obtained.
Freshly excised porcine skin was allowed to hydrate in reverse-osmosis purified water for 4 h, then it was cut into rectangular samples and stored for 24 hours in a closed container on top of a paper towel saturated with a solution of 90% water and 10% glycerol. The stratum corneum was wiped with a cotton gauze pad saturated with an aqueous solution of lysine at a concentration of 2 wt %. The gel composition prepared as described in […] was scooped onto a spatula, which was used to apply a thin layer of the gel in a circle of approximately 1-cm diameter on the stratum corneum. After allowing the gel to dry on the skin for 10 minutes, the skin sample was returned to the closed container with the saturated paper towel to allow the skin to remain hydrate while the reaction continued to develop. After 3 hours, the skin was removed and washed liberally by scrubbing the skin with a loofah saturated with a soap solution of 10% alcanox in water until a foam lather was formed, rinsed with reverse-osmosis water, and wiped with a paper towel saturated with a 70% isopropanol solution, and finally patted dry with a paper towel. This washing procedure was repeated five times.

[2] = Ultraviolet-visible absorption spectra of solutions of o-phthalaldehyde ultraviolet absorbers vs the parent carboxylic acids (FIG. 4); type: physicochemical; conditions: solution; for visible absorption introduced by the 3-(3,4-diformylphenyl)propyl moiety: compared with corresponding carboxylic acids
Excerpt: FIG. 4 is a set of graphs of the ultraviolet-visible absorption spectra of solutions of (a) 4-((3-(2H-benzo[d][1,2,3]triazol-2-yl)-2-hydroxy-5-methylbenzyl)oxy)phthalaldehyde, prepared according to the process described in example 3, and 3-(3-(benzotriazole-2-yl)-5-tert-butyl-4-hydroxyphenyl)propanoic acid, (b) 3-(3-(2H-benzo[d][1,2,3]triazol-2-yl)-5-(tert-butyl)-4-hydroxyphenyl)propanoate, prepared according to the process described in Example 4, and 2-(4-diethylamino-2-hydroxybenzoyl)benzoic acid, (c) 3-(3,4-diformylphenyl)propyl 3-(4-methoxyphenyl)acrylate, prepared according to the process described in example 5, and 4-methoxycinnamic acid.

Compound | localization / penetration in skin layers ([1]; excessively washed, bisected through to the subcutis) | retention of the mark on skin after washing [1] | alteration of the absorption profiles of the ultraviolet-absorbing moieties by the 3-(3,4-diformylphenyl)propyl moiety [2] | visible absorption introduced by the 3-(3,4-diformylphenyl)propyl moiety [2]
Cc1c(C)c(O)c(C=O)c(C=O)c1O [3,6-dihydroxy-4,5-dimethyl-1,2-benzenedicarboxaldehyde] | localized in the stratum corneum and did not penetrate to lower epidermal or dermal layers of the skin | retained | – | –
CC(C)(C)c1cc(CCC(=O)OCCCc2ccc(C=O)c(C=O)c2)cc(-n2nc3ccccc3n2)c1O [Example 3, 3-(3,4-diformylphenyl)propyl 3-(3-(2H-benzo[d][1,2,3]triazol-2-yl)-5-(tert-butyl)-4-hydroxyphenyl)propanoate] | – | – | only minor alteration of the absorption profiles | without introducing substantial visible absorption
CCN(CC)c1ccc(C(=O)c2ccccc2C(=O)OCCCc2ccc(C=O)c(C=O)c2)c(O)c1 [Example 4, 3-(3,4-diformylphenyl)propyl 2-(4-(diethylamino)-2-hydroxybenzoyl)benzoate] | – | – | only minor alteration of the absorption profiles | without introducing substantial visible absorption
COc1ccc(C=CC(=O)OCCCc2ccc(C=O)c(C=O)c2)cc1 [Example 5, 3-(3,4-diformylphenyl)propyl 3-(4-methoxyphenyl)acrylate] | – | – | only minor alteration of the absorption profiles | without introducing substantial visible absorption
COC(=O)C1=CO[C@@H](O)[C@@H]2C(CO)=CC[C@H]12 [genipin, reference compound] | – | retained | – | –
